Reference: US7524669B2 (priority 2002, dated 2009)
Read-outs that look alike come from different tables or passages of the source.

Assays:
[1] = test system: S. cerevisiae HD9 (fps1Δ acr3Δ ycf1Δ); format: cell-based, Saccharomyces cerevisiae; conditions: strain HD9 (FPS1 deleted), 5 μM metalloid, FIG. 4
AQP9 [2] = biological target: T1, AQP9 (Rattus norvegicus, UniProt P56627); format: cell-based, Saccharomyces cerevisiae
[3] = test system: S. cerevisiae HD9 (fps1Δ acr3Δ ycf1Δ); conditions: HD9 vs MG102 (acr3Δ ycf1Δ), FIG. 3
AQP9 [4] = biological target: T1, AQP9; conditions: for effect of AQP9 expression on resistance/sensitivity of strain HD9: HD9 pAQP9, galactose induced, FIG. 3
AQP7 = conditions: HD9 pAQP7
[5] = test system: S. cerevisiae strains W303, W303 pYCF1, MG100, MG100 pYCF1; test: Arsenite transport (accumulation) assay in intact cells, Example 1; format: cell-based, Saccharomyces cerevisiae; conditions: FIG. 2
[6] = test system: S. cerevisiae strains W303, W303 pYCF1, MG100, MG100 pYCF1; test: Metal ion resistance assay (growth in liquid SD medium), Example 1

T1 sequence (P56627 whole entry): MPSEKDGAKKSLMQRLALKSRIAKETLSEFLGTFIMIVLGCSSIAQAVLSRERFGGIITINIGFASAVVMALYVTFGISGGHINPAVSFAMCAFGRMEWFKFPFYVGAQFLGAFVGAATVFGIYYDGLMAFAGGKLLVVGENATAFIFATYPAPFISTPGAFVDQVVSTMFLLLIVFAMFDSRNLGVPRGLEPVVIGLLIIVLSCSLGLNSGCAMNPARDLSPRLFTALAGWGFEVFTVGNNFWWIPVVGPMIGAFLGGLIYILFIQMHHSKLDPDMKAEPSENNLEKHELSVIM

O.O.O.O=C([O-])[C@H]([O-])[C@@H]([O-])C(=O)[O-].O=C([O-])[C@H]([O-])[C@@H]([O-])C(=O)[O-].[K+].[K+].[Sb+3].[Sb+3] [antimonite, potassium antimonyl tartrate]
transport of radioactive metalloid into cells [1]: low rates of transport
transport of radioactive metalloid into cells (AQP9 [2]): facilitates transport
resistance of strain HD9 compared to strain MG102 (growth) [3]: relatively resistant
effect of AQP9 expression on resistance/sensitivity of strain HD9 (AQP9 [4]): reversed
effect of AQP7 on a plasmid on resistance of strain HD9 (AQP7): no effect on resistance

O=[As]O [arsenite, sodium arsenite]
accumulation of 73As(OH)3 in intact cells ([5]; strain MG100, 1.0 μM arsenite): accumulates more ^73As(III) than the wild type
accumulation of 73As(OH)3 in intact cells ([5]; strain MG100 pYCF1, 1.0 μM arsenite): accumulate much higher amounts of arsenite
accumulation of 73As(OH)3 in intact cells ([5]; strain W303, 1.0 μM arsenite): accumulate the least arsenic
accumulation of 73As(OH)3 in intact cells ([5]; strain W303 pYCF1, 1.0 μM arsenite): increases the amount of radioactive arsenite accumulated
transport of radioactive metalloid into cells [1]: reduced
transport of radioactive metalloid into cells (AQP9 [2]; HD9 expressing AQP9, 5 μM metalloid, FIG. 4): accumulated more ^73As(OH)3 than the parental strain MG102
resistance of strain HD9 compared to strain MG102 (growth) [3]: resistant
effect of AQP9 expression on resistance/sensitivity of strain HD9 (AQP9 [4]): reversed
effect of AQP7 on a plasmid on resistance of strain HD9 (AQP7): no effect on resistance
arsenite sensitivity (growth) ([6]; strain MG100 (ACR3Δ), FIG. 1): extremely arsenic sensitive
arsenite resistance (growth) ([6]; strain MG100 pYCF1, FIG. 1): restores arsenite resistance
arsenite resistance (growth) ([6]; strain W303 (wild type ACR3), FIG. 1): resistant to higher concentrations
arsenite resistance (growth) ([6]; strain W303 pYCF1, Ycf1p expressed on a plasmid, FIG. 1): no effect on resistance

[Cl][Cd][Cl] [cadmium, cadmium chloride]
effect of AQP9 expression on resistance/sensitivity of strain HD9 (AQP9 [4]): no effect on sensitivity

OCC(O)CO [glycerol]
inhibition of 73As(OH)3 uptake by glycerol (AQP9 [2]): reduced the uptake
effect of glycerol on AQP9-related arsenite sensitivity in growth assays (AQP9 [4]): small reversal of the AQP9-related arsenite sensitivity

sodium arsenate
effect of AQP9 expression on resistance/sensitivity of strain HD9 (AQP9 [4]): no effect on sensitivity
